Laboratory results reported in patent publication US11339417B2, “Amplifier system and controls for dielectrophoretic tracking in microfluidic devices” (University of Virginia Patent Foundation, priority 2014, dated 2022).
Values joined by “and” are separate entries in the source; they are usually repeats but may differ in a detail not shown here. Equal values may be shown once.

Experiments:
[1] = test system: Cryptosporidium parvum oocysts; assay: Excystation of oocysts after disinfection treatment; type: cell-based; settings: oocysts treated with 100 mg L^−1 for 4 hours; untreated 89.5%
Procedure: For treatment with silver nanoparticles (AgNPs), the animal infectivity experiment was done after the oocysts were treated with 100 mg L^−1 proteinate capped AgNPs (Argenol) (˜15 nm) for 4 hours.
After each disinfection treatment, the oocysts were treated with 10% bleach (Bleach-Rite) for 30 minutes in a micro-centrifuge tube at room temperature, followed by vortexing every 10 minutes. The suspension was incubated in a microfluidic chamber with a glass cover-slip for an hour, for real-time recording of the excystation; i.e. release of sporozoites from the oocyst. The excystation was examined by inverted microscopy using 63× oil immersion phase and DIC objectives. […] The percentage of the excystation was calculated as: (# of excysted oocytsl # of total oocyst)×100.^29 For mouse model infectivity studies,^12 all mice were malnourished for a period of 13 days before experiments. For every six mice fed with the oocysts for each treatment, three other mice were fed with untreated oocysts as positive control.

[2] = test system: Cryptosporidium parvum oocysts; assay: Dielectrophoretic characterization of oocysts (DEP tracking, single shell model fit); type: cell-based; settings: 100 mg L^−1 for 4 hours
[3] = test system: C. difficile VPI10463 (high-toxigenic, HTCD); assay: Dielectrophoretic (DEP) characterization of C. difficile HTCD strain after vancomycin treatment; type: cell-based, Clostridium difficile
Procedure: Bacteria strains preparation. II three C. difficile strains were purchased from ATCC. The bacteria were cultured in brain heart infusion (BHI) broth (BD BBL Brain Heart Infusion) at 37° C. overnight under anaerobic condition before further antibiotic treatment or dielectrophoretic experiments. 250 μL of the overnight cultured bacteria suspension and 750 μL of the BHI with vancomycin (Novaplus) or without vancomycin for the control groups were mixed in Eppendorf tubes and incubated at 37° C. for 4 hours or 24 hours. The vancomycin concentration for VPI10463 (high-toxigenic, HTCD) was 2 mg/mL and 1 mg/mL for ATCC630 (low-toxigenic, LTCD) and VPI11186 (non-toxigenic, NTCD). Prior to the dielectrophoresis experiments, the BHI broth was replaced with 8.8% sucrose water and re-adjusted with BHI broth to optimize the medium conductivity 105±5% mS/m for enabling DEP-based distinction of C. difficile strains from mixed samples. All three strains were confirmed to be viable within this altered BHI media over the timeframe of the DEP experiments, as per the colony forming unit (CFU) assay.
Dielectrophoretic characterization of C. difficile. The experimental setup has been described in our prior work. Briefly, Standard PDMS (Poly-di-methyl-siloxane) micro-molding methods were used to micro-fabricate channels with sharp lateral constrictions (1000 μm to 15 μm). […] The trajectory of the unlabeled C. difficile of each strain type was observed under this field, as high frame per second movies to quantify the DEP velocity. For experiments within mixed C. difficile samples, the trapped microbials were released and analyzed with the immunoassay to confirm toxigenicity. […]
(§1) FIGS. 2a and 2b show the electrode-less device with external electrodes (1 cm apart) to initiate localized microbial trapping in the constriction region. […] In this manner, as per prior work^33, the translational velocity under the DEP trapping force is measured for ˜20 individual microbial cells to quantify the DEP spectra. […]

[4] = test system: C. difficile ATCC630 (low-toxigenic, LTCD); assay: Dielectrophoretic (DEP) characterization of C. difficile LTCD strain after vancomycin treatment; type: cell-based, Clostridium difficile; settings: vancomycin 1 mg/mL, untreated 500 kHz
Procedure: (§2) Bacteria strains preparation. II three C. difficile strains were purchased from ATCC. The bacteria were cultured in brain heart infusion (BHI) broth (BD BBL Brain Heart Infusion) at 37° C. overnight under anaerobic condition before further antibiotic treatment or dielectrophoretic experiments. 250 μL of the overnight cultured bacteria suspension and 750 μL of the BHI with vancomycin (Novaplus) or without vancomycin for the control groups were mixed in Eppendorf tubes and incubated at 37° C. for 4 hours or 24 hours. The vancomycin concentration for VPI10463 (high-toxigenic, HTCD) was 2 mg/mL and 1 mg/mL for ATCC630 (low-toxigenic, LTCD) and VPI11186 (non-toxigenic, NTCD). […]
(§3) Dielectrophoretic characterization of C. difficile. […] The trajectory of the unlabeled C. difficile of each strain type was observed under this field, as high frame per second movies to quantify the DEP velocity. For experiments within mixed C. difficile samples, the trapped microbials were released and analyzed with the immunoassay to confirm toxigenicity. […]
as §1

[5] = test system: C. difficile VPI11186 (non-toxigenic, NTCD); assay: Dielectrophoretic (DEP) characterization of C. difficile NTCD strain after vancomycin treatment; type: cell-based, Clostridium difficile
Procedure: as §2, §3, §1

[6] = test system: C. difficile VPI10463 (high-toxigenic, HTCD); assay: Toxicity enzyme-linked immunosorbent assay, total toxin (A/B) production; type: cell-based, Clostridium difficile
Procedure: Toxicity enzyme-linked immunosorbent assay. Total toxin (A/B) production was measured using the C. difficile TOX A/B II kit (Tech-Lab) according to the manufacturer's instructions. Culture supernatants were collected at 0, 4 and 24 hours by centrifugation at 3500 rcf for 5 min and stored at −20° C. The supernatants of the VPI110463 strain were diluted 1 to 20, while the supernatants of the VPI11186 strain were undiluted. Each specimen was run in duplicate. Total toxin levels were determined by measuring A450 under a 96 well plate spectrophotometry. The A450 number at each time point (4 hours and 24 hours) of each strain at each condition was normalized to its 0 hour time point.
(§4) In order to evaluate the sensitivity of DEP methods versus the current state of the art, we benchmark the DEP velocity data for HTCD and NTCD C. difficile strains after various levels of antibiotic treatment versus conventional diagnostic measures for the loss of C. difficile functionality, such as toxin production and growth rate values. To enable the comparison of DEP data across the range of C. difficile strains, we choose a frequency of 1 MHz, since all strains show some level of pDEP before and after antibiotic treatment. For measurements of alteration in toxin production level and growth rate of C. difficile strains after antibiotic treatment, it is necessary to culture the microbial cells with the antibiotic over a period of 4-24 hours, to enable sufficient sensitivity for the measurements. […] Furthermore, the results after antibiotic treatment for a particular period of time are compared against their respective values on untreated microbials for the same period of culture time (this control value for each treatment time is indicated as “Un-0”, “Un-4” or “Un-24” in FIGS. 15c-15e).

[7] = test system: C. difficile VPI10463 (high-toxigenic, HTCD); assay: Growth measurement (OD600), HTCD strain; type: cell-based, Clostridium difficile
Procedure: (§5) Growth measurement. 250 μL of the overnight cultured bacteria suspension and 750 μL of the BHI broth, with or without vancomycin were mixed in Eppendorf tubes. The optical density at a wavelength of 600 nm (OD600) of the mixed bacteria suspensions, measured by Spectrophotometry (Eppendorf Biophotometer) before incubation, was indexed as the “0 hour” time point. The OD600 number at later time points (4 and 24 hours) for respective strain at each condition was normalized to its 0 hour point.
as §4

[8] = test system: C. difficile VPI11186 (non-toxigenic, NTCD); assay: Growth measurement (OD600), NTCD strain; type: cell-based, Clostridium difficile
Procedure: as §5, §4

[9] = 4 hours of vancomycin treatment
[10] = 24 hours of vancomycin treatment

| Structure (SMILES) | Excystation rate [1] | DEP response of treated versus untreated oocysts at 100 kHz and at 400 kHz [2] | DEP crossover frequency after vancomycin treatment ([3]; HTCD / hypervirulent TCD strain, vancomycin 2 mg/mL, untreated 300 kHz or 400 kHz) | DEP velocity after vancomycin treatment ([3]; HTCD, 1 MHz, 4 hours of vancomycin treatment, untreated 30.7 μm/s) | DEP behavior at 400 kHz of vancomycin treated cells ([3]; HTCD, 400 kHz, untreated HTCD shows pDEP) | DEP crossover frequency after vancomycin treatment [4] | DEP crossover frequency after vancomycin treatment ([5]; NTCD strain, vancomycin 1 mg/mL, untreated 900 kHz) | DEP velocity after vancomycin treatment ([5]; NTCD, 1 MHz, 4 hours of vancomycin treatment, untreated 16 μm/s) | Difference in toxin production level versus the control (Un-4) [6, 9] | Relative toxin production (normalized to 0 hour) [6, 9] | Difference in toxin production level versus the control (Un-24) [6, 10] | Relative toxin production (normalized to 0 hour) [6, 10] | Growth rate reduction [7, 9] | Relative growth rate (OD600 normalized to 0 hour) [7, 9] | Difference in growth rate versus the control (Un-24) [7, 10] | Relative growth rate (OD600 normalized to 0 hour) [7, 10] | Difference in growth rate versus the untreated sample (Un-4) [8, 9] | Relative growth rate (OD600 normalized to 0 hour) [8, 9] | Difference in growth rate versus the untreated sample (Un-24) [8, 10] | Relative growth rate (OD600 normalized to 0 hour) [8, 10] |
| --- | --- | --- | --- | --- | --- | --- | --- | --- | --- | --- | --- | --- | --- | --- | --- | --- | --- | --- | --- | --- |
| O=[N+]([O-])[O-].[Ag+] [AgNO3, silver nitrate] | 71.4% and 70% | not significantly altered |  |  |  |  |  |  |  |  |  |  |  |  |  |  |  |  |  |  |
| CN[C@H](CC(C)C)C(=O)N[C@H]1C(=O)N[C@@H](CC(N)=O)C(=O)N[C@H]2C(=O)N[C@H]3C(=O)N[C@H](C(=O)N[C@H](C(=O)O)c4cc(O)cc(O)c4-c4cc3ccc4O)[C@H](O)c3ccc(c(Cl)c3)Oc3cc2cc(c3O[C@@H]2O[C@H](CO)[C@@H](O)[C@H](O)[C@H]2O[C@H]2C[C@](C)(N)[C@H](O)[C@H](C)O2)Oc2ccc(cc2Cl)[C@H]1O [vancomycin] |  |  | 600 kHz and 900 kHz | 7.6 μm/s | some residual level of nDEP and nDEP | 300 kHz | 600 kHz | ~7 μm/s | 0.55 | 1.05 times | 7.5 | small reduction | minimal growth rate reduction | 1.51 times | 2.2 | 1.61 times | 0.74 | 1.1 times | 3.3 | 1.05 times |
